Experimental data: US9573956B2, “Compounds as dual inhibitors of phosphodiesterases and histone deacetylases” (FUNDACIÓN PARA LA INVESTIGACIÓN MÉDICA APLICADA, priority 2013, dated 2017)
Like-named read-outs stand apart in the source and are kept apart here. Marks after values point to notes of the source that are not given here.

Columns and labels:
HDAC1 = HDAC1 (Homo sapiens, UniProt Q13547); assay: HDAC enzyme activity assay (fluorogenic substrate), HDAC1; type: biochemical; settings: read-out: HDAC1 inhibition (IC50)
Sequence of HDAC1 (Q13547 whole entry): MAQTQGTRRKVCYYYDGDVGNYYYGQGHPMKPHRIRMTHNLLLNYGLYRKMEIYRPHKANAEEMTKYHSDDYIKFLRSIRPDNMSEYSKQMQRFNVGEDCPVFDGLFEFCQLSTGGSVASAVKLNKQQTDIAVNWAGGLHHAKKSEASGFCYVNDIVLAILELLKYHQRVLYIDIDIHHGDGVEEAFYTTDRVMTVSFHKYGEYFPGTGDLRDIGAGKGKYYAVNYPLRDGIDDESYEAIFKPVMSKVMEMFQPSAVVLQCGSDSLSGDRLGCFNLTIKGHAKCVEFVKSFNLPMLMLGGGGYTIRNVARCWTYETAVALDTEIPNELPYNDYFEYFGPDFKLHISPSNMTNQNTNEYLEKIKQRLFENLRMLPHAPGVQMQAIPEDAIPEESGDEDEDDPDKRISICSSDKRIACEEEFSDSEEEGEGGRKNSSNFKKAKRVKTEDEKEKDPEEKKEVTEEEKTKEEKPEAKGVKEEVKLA

PDE4A1 = molecular target: T1, PDE4A1 (Homo sapiens, UniProt P27815); assay: PDE enzyme activity assay (HTRF cGMP), PDE4A1; type: biochemical; settings: read-out: PDE4A1 inhibition (IC50)
T1 construct: they are full-length with N-terminal GST tag; GST (N); purchased BPS Biosciences 60040; host or cells: baculovirus infected Sf9 cells
T1 sequence (P27815 1-647 isoform P27815-4): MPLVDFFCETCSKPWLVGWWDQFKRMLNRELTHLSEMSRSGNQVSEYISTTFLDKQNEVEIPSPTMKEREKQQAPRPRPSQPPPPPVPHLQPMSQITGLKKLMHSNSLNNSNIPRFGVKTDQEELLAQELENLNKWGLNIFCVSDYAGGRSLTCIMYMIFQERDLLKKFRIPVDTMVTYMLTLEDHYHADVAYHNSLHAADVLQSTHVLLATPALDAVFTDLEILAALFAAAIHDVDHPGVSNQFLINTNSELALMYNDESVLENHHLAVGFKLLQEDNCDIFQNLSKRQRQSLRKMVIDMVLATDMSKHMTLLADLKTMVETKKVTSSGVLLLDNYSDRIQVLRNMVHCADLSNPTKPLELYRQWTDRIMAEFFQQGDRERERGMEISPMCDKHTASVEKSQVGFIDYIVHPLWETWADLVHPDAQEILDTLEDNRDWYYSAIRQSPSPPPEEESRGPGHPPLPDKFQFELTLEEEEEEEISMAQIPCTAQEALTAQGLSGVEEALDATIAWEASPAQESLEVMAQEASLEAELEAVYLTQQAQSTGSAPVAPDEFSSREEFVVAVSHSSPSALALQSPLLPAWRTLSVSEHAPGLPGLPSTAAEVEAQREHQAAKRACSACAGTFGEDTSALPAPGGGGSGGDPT

PDE4D7 = PDE4D7 (Homo sapiens, UniProt Q08499); assay: PDE enzyme activity assay (HTRF cGMP), PDE4D7; type: biochemical; settings: read-out: PDE4D7 inhibition (IC50)
Sequence of PDE4D7 (Q08499 1-748 isoform Q08499-11): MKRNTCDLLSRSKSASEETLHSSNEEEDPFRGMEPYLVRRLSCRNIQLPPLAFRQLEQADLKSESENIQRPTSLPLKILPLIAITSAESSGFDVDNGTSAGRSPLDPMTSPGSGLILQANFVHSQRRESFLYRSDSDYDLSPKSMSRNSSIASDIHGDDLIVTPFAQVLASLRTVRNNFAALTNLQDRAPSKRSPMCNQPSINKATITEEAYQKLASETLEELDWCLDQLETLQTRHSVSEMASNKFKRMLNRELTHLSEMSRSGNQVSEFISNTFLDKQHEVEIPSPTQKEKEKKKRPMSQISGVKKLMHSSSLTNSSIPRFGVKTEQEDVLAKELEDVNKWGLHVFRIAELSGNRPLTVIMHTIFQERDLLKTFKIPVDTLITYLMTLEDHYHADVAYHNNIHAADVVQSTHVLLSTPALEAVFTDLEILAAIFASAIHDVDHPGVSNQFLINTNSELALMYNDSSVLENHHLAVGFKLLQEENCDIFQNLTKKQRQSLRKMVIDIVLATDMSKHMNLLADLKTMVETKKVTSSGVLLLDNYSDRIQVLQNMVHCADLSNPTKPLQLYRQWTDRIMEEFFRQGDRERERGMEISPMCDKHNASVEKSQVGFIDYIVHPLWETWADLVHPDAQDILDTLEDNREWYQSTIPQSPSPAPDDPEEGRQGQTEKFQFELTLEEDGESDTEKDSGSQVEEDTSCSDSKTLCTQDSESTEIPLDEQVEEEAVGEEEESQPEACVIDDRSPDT
Source text: The biochemical assay to measure PDE5A, PDE9A isoform b, PDE4D7, and PDE4A1 enzyme activities relies on the HTRF cGMP assay kit from CisBio (CisBio, Cat. #62GM2PEB), that determines the amount of cGMP present in the reaction. The enzymes were obtained from BPS Biosciences (GenBank Accession number for PDE5A: NM_001083, Cat. #60050; PDE9A: NM_001001567, Cat. #60090; PDE4D7: NM_001165899, Cat. #60047; and PDE4A1: U97584, Cat. #60040) and they are full-length with N-terminal GST tag. They were expressed in a baculovirus infected Sf9 cell expression system.
For each enzyme, enzyme activity assay was carried out in a 384-well plate in a final volume of 20 μL, as follows: • 2.5 μL of vehicle or studied compound 4× concentrated prepared in assay buffer containing 50 mM Tris-HCl, 6 mM MgCl2, pH 7.4 (PDE5A, PDE4D7, PDE4A1) and additionally 0.03% Tween-20 (PDE9A). Final percentage of DMSO was 0.5%. • 2.5 μL of PDE5A (7 μg/mL) or 2.5 μL PDE9A (0.2 μg/mL) or 2.5 μL PDE4D7 (1.25 μg/mL) or 2.5 μL PDE4A1 (1.5 μg/mL) diluted in assay buffer. […]
Fluorescence of each well was determined at […] using the plate reader EnVision (Perkin-Elmer). Results were calculated from the 665 nm/620 nm ratio. […]

[1] = tested on: acetylated histone 3 at Lys9 (AcH3K9); assay: HDAC activity in wild type primary neurons (Western blot AcH3K9); type: cell-based, mouse; settings: 30 min, EC50 = 50% increase in AcH3K9 over basal
pTau = assay: AD-related markers in Tg2576 mice after chronic treatment: pTau; type: in vivo, mouse; settings: chronic treatment (3-5 weeks), hippocampal homogenates
Method: AD-related markers (APP processing, pTau and acetylated-tubulin) in Tg2576 mice. The effects of the compounds were also analysed in Tg2576 mice after chronic treatment (3-5 weeks) using hippocampal homogenates obtained in a buffer containing SDS (2%) and following the same protocol as described in the in vitro studies.

pCREB [2] = assay: In-vivo activity, hippocampus of wild type mice: pCREB; set-up: species or system mouse; settings: i.p. 40 mg/kg, hippocampus one hour later
Method: (§1) To determine the ability of the compounds to inhibit HDAC and PDE in the brain, the compound was administered to wild type mice by i.p. at a dose of 40 mg/kg (n=3). Another group of animals received the vehicle (1/1/8, v:v:v, DMSO/Tween 20/saline). One hour later, mice were sacrificed by cervical dislocation and their hippocampus was quickly dissected from the brains.
(§2) Total tissue homogenates were obtained by homogenizing the hippocampus in a cold lysis buffer with protease inhibitors (0.2 M NaCl, 0.1 M HEPES, 10% glycerol, 200 mM NaF, 2 mM Na4P2O7, 5 mM EDTA, 1 mM EGTA, 2 mM DTT, 0.5 mM PMSF, 1 mM Na3VO4 and Complete Protease Inhibitor Cocktail, Roche Diagnostics). The homogenate was then centrifuged at 14,000×g at 4° C. for 20 min and the supernatant aliquoted and stored at −80° C. Total protein concentrations were determined using the BioRad Bradford protein assay (BioRad Laboratories). Protein samples were analyzed as described in the “in vitro” section.

PDE9A isoform b = molecular target: T2, PDE9A isoform b (Homo sapiens, UniProt O76083); assay: PDE enzyme activity assay (HTRF cGMP), PDE9A; type: biochemical; settings: recombinant enzyme; read-out: PDE9A inhibition (IC50)
T2 construct: they are full-length with N-terminal GST tag; GST (N); purchased BPS Biosciences 60090; host or cells: baculovirus infected Sf9 cells
T2 sequence (O76083 1-533 isoform O76083-2): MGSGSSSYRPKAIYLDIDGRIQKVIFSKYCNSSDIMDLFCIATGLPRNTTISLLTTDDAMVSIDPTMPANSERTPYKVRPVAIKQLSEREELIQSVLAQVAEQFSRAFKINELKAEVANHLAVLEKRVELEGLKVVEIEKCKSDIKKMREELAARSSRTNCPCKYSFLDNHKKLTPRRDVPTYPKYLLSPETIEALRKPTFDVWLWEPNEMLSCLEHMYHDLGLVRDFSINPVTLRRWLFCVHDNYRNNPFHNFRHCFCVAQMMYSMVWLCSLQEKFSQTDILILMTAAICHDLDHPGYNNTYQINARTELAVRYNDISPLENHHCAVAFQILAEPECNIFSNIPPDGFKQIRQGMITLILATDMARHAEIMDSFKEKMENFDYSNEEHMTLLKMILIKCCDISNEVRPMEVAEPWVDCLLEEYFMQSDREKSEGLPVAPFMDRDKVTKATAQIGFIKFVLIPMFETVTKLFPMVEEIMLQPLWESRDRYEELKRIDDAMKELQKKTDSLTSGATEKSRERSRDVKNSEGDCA

AcH3 = assay: In-vivo activity, hippocampus of wild type mice: AcH3; set-up: species or system mouse; settings: i.p. 40 mg/kg, hippocampus one hour later
Method: as §1, §2

pCREB [3] = assay: PDE activity in wild type primary neurons (Western blot pCREB); type: cell-based; settings: Mus musculus, Neuron, 0.5 h, 30 min, EC50 = 50% increase in pCREB over basal
[4] = tested on: phosphorylated tau (p-tau); assay: AD-related markers in Tg2576 neurons: pTau; type: cell-based; settings: Mus musculus, Neuron, 48 h, treated two days, EC50 = 50% decrease in pTau over basal
[5] = Pharmacokinetics, plasma and brain concentrations in wild type mice; type: in vivo; settings: mouse, ip
Method: Plasma and brain samples for measuring compounds concentrations were collected at predetermined times from four wild type mice per point. Three time points were measured: 0.25, 0.5 and 1.0 hour. Compounds concentration was measured using a Xevo-TQ MS triple quadropole mass spectrometer with an electrospray ionization (ESI) source and an Acquity UPLC (Waters, Manchester, UK).
[…]. Compounds were injected as a single intraperitoneal injection. Animals were killed by decapitation.
Plasma. Blood was collected into tubes containing EDTA and plasma was collected via centrifugation (4° C., 13200 rpm, 5 min) and stored at −80° C. until analysis.
Brain. Brains were collected immediately after mice death. The brains were excised, weighed and frozen at −80° C. until further process for analysis.
Chromatographic separation was performed by gradient elution at 0.4 mL/min using an Acquity UPLC BEH C18 column (100×2.1 mm, 1.7 μm particle size; Waters). The mobile phase consisted of A: water with 0.1% formic acid, B: methanol with 0.1% formic acid. After 1.5 min at the initial condition of 95% A, solvent B was increased from 5% to 100% over 2 min, maintained at 100% for 1.5 min, then a linear gradient to initial conditions was applied for 0.1 min and maintained for 3.4 minutes to re-equilibrate the column, giving a cycle time of 8.5 min. The autosampler temperature was set at 10° C. and column temperature at 45° C.
Compounds were monitored using a triple quadrupole mass spectrometer equipped with an electrospray ionization interface. For detection and quantification, a capillary voltage of 3.5 kV and a cone voltage of 38 V were used. Source and desolvation temperatures were 150° C. and 650° C., respectively. Ultra-high purity nitrogen was used for cone gas (75 L h^−1) and desolvation gas (1000 L h^−1). The electrospray ionization operated in the positive mode, and the collision gas used was ultra-pure argon at a flow rate of 0.15 mL min^−1.
Quantification was achieved by external calibration using matrix-matched standards. Concentrations were calculated using a weighted least-squares linear regression (W=1/×). […]. The mixture was then agitated for 10 min and centrifuged at 13200 rpm for 5 min at 4° C. The resulting supernatants were transferred to a Ostro plate (Waters, Manchester, UK), designed to remove phospholipids. The resulting eluents were evaporated at 37° C. under a stream of nitrogen. Residues were dissolved in 75 μL of a mixture of methanol and water (50:50, v:v). A 10-uL aliquot of the resulting solution was injected onto the LC-MS/MS system for analysis. Frozen plasma samples were thawed at room temperature, vortexed thoroughly and subjected to the above described extraction procedure. Brain samples were thawed unassisted at room temperature and homogenized using a Branson 250 ultrasonic sonifier (Branson, Danbury, Conn., USA). When homogenized, 75 mg were weighted and extracted as described previously.
Concentration values obtained from the LC-MS/MS analyses are described in Table 4.

PDE5A = molecular target: T3, PDE5A (Homo sapiens, UniProt O76074); assay: PDE enzyme activity assay (HTRF cGMP), PDE5A; type: biochemical; settings: recombinant enzyme; read-out: PDE5A1 inhibition (IC50)
T3 construct: they are full-length with N-terminal GST tag; GST (N); purchased BPS Biosciences 60050; host or cells: baculovirus infected Sf9 cells

COc1ccc(N(C(=O)c2c(Cl)cncc2Cl)C2CCN(c3ncc(C(=O)NO)cn3)CC2)cc1OC1CCCC1 [Example 5-04]
IC50 (HDAC1): 10 to 1000 nM | IC50 (PDE4A1): > 10 µM | IC50 (PDE4D7): > 10 µM

CN1CC(=O)N2[C@H](c3ccc4c(c3)OCO4)c3[nH]c4ccccc4c3C[C@@H]2C1=O [Tadalafil, reference compound]
AcH3 (EC50) [1]: N.E. | pTau, increment in biological response vs basal (pTau): +++ (basal×2≦(+++)<basal×3) | IC50 (HDAC1; recombinant enzyme): > 10000 nM | pCREB, increment in biological response vs basal (pCREB [2]): +++ (basal×2≦(+++)<basal×3) | IC50 (PDE9A isoform b): > 10 µM | AcH3, increment in biological response vs basal (AcH3): N.E. (N.E. means No Effect) | EC50 (pCREB [3]): 10 to 1000 nM | EC50 [4]: 10 to 1000 nM

CCCc1nn(C)c2c(=O)[nH]c(-c3cc(OC4CCN(c5ncc(C(=O)NO)cn5)CC4)ccc3OCC)nc12 [Example 1-12]
EC50 ([1]; Mus musculus, Neuron, 0.5 h, read-out: AcH3 (EC50)): 10 to 1000 nM | CMax (brain; nmol/Kg) ([5]; in vivo, 40 mg/kg): 71.3 (19.5)^c nmol/Kg | Tmax ([5]; dosage 40 mg/Kg, single intraperitoneal injection, wild type mice, time of maximum concentration in brain): 15 min | Cmax ([5]; plasma, dosage 40 mg/Kg, single intraperitoneal injection, wild type mice, at tMax, (Standard Deviation)): 1880 nM | IC50 (HDAC1; recombinant enzyme): 10 to 1000 nM | IC50 (PDE5A): 10 to 1000 nM | pCREB, increment in biological response vs basal (pCREB [2]): +++ (basal×2≦(+++)<basal×3) | IC50 (PDE9A isoform b): 1 to 10 µM | AcH3, increment in biological response vs basal (AcH3): ++ (basal×1≦(++)<basal×2) | EC50 (pCREB [3]): 10 to 1000 nM

COc1ccc(N(CCCCCCC(=O)NO)C(=O)c2c(Cl)cncc2Cl)cc1OC1CCCC1 [Example 5-05, 7-(N-[3,5-Dichloropyridin-4-ylcarbonyl]-N-[(3-(cyclopentyloxy)-4-methoxyphenyl)]amino)-N-hydroxyheptanamide]
IC50 (HDAC1; recombinant enzyme): 10 to 1000 nM | IC50 (PDE4A1; recombinant enzyme): 1 to 10 µM | IC50 (PDE4D7; recombinant enzyme): > 10 µM

C[C@@H]1CN(Cc2ncccn2)C[C@H]1c1nc2c(cnn2C2CCOCC2)c(=O)[nH]1 [PF-4447943, 6-[(3S,4S)-4-methyl-1-(pyrimidin-2-ylmethyl)pyrrolidin-3-yl]-1-(tetrahydro-2H-pyran-4-yl)-1H-pyrazolo[3,4-d]pyrimidin-4(5H)-one, reference compound]
IC50 (PDE5A): 1000 to 10000 nM | IC50 (PDE4A1; recombinant enzyme): 1 to 10 µM
